In patent US8349864B2, “Pyrano [3,2-C] pyridones and related heterocyclic compounds as pharmaceutical agents for treating disorders responsive to apoptosis, antiproliferation or vascular disruption, and the use thereof” (New Mexico Technical Research Foundation, priority 2009, dated 2013):

What was measured:
[1] = tested on: HeLa; experiment: MTT cell viability assay, HeLa cells; assay type: cell-based; conditions: Homo sapiens, 48 h treatment, ± SD, two experiments, 8 replicates
[2] = tested on: MCF-7; experiment: MTT cell viability assay, MCF-7 cells; assay type: cell-based; conditions: Homo sapiens, MCF7, 48 h treatment, ± SD, two experiments, 8 replicates
[3] = tested on: Jurkat cells; experiment: DNA laddering assay; assay type: cell-based, human; conditions: 1.5 μM; 36 h; 1.5% agarose gel
Protocol: Since endonuclease-mediated cleavage of nuclear DNA resulting in formation of oligonucleosomal DNA fragments (180-200 base pairs long) is a hallmark of apoptosis in many cell types, apoptosis was further investigated with the DNA laddering assay (FIG. 2). Jurkat cells were treated with DMSO (lane A), analogues 40 and 41 (lanes B and C), and paclitaxel (lane D) for 36 h. After that the cellular DNA was isolated and electrophoresed in a 1.5% agarose gel. […] No laddering was observed when the cells were treated with DMSO control.
FIG. 2 illustrates DNA laddering in Jurkat cells after 36 h of treatment. (A) DMSO control, (B) 40 at 1.5 μM, (C) 41 at 1.5 μM, (D) paclitaxel at 0.4 μM, and (E) Molecular weight marker (KB).

[4] = tested on: Jurkat cells; experiment: Light microscopy of morphological changes; assay type: cell-based, human; conditions: 1 μM, 2 h
Protocol: Morphological changes of cells treated with potent analogues can be visually observed with light microscopy (FIG. 3).
FIG. 3 illustrates light microscopy pictures. Treatment of Jurkat cells with 40 (C) and 41 (D) for 2 hours induces formation of finger-like extensions (black arrows) and shriveling (white arrows). 0.1% DMSO (A) and a known anticancer agent (B) were used as controls. All compounds are used at 1 μM. The scale bar indicates 40 μm.

[5] = tested on: Jurkat cells; experiment: Flow cytometric cell cycle analysis (Vybrant Orange staining); assay type: cell-based, human
Description: Our libraries of compounds exert their antiproliferative properties through inhibition of tubulin dynamics, thereby inducing mitotic arrest and initiating apoptosis in cancer cells. […] This effect is characteristic of antimitotic agents disrupting microtubule assembly.

[6] = tested on: tubulin; experiment: In vitro tubulin polymerization (fluorescence); assay type: biochemical; conditions: 25 μM; relative to 0.05% DMSO control
Description: To obtain further support for the proposed antitubulin mechanism of action for our heterocycles, we assessed the effect of pyranoquinolones on in vitro tubulin polymerization. In this assay microtubule formation is monitored by the increase in fluorescence intensity of the reaction mixture.
FIG. 4 illustrates the effect of our compounds on in vitro tubulin polymerization.

COc1cc(C2C(C#N)=C(N)Oc3c2c(=O)n(C)c2ccccc32)cc(Br)c1OC (stereo not drawn) [Compound 41, 2-Amino-4-(3-bromo-4,5-dimethoxyphenyl)-6-methyl-5-oxo-5,6-dihydro-4H-pyrano[3,2-c]quinoline-3-carbonitrile]
GI50 [1]: 14 ± 3 nM | GI50 [2]: 380 ± 30 nM | DNA laddering in Jurkat cells [3]: characteristic ladder pattern was obtained | morphological (phenotypic) changes of Jurkat cells [4]: formation of finger-like extensions and shriveling | cell cycle arrest ([5]; Jurkat cell line, flow cytometric cell cycle analysis): pronounced cell cycle arrest in the G2/M phase | % relative DNA content G0/G1 ([5]; Jurkat, 1 μM, 24 h, ± SD): 20 ± 2% | % relative DNA content G2/M ([5]; Jurkat, 1 μM, 24 h, ± SD): 49 ± 2% | % relative DNA content S ([5]; Jurkat, 1 μM, 24 h, ± SD): 28 ± 2% | effect on in vitro tubulin polymerization [6]: completely suppress tubulin polymerization
